The subject of the experiment is acute vomiting induced by a central emetic agent loperamide in dogs. The experiment can be described thus: Acute vomiting induced by loperamide in dogs. The settings on record: loperamide 1 mg/kg subcutaneous. It counts as in vivo, beagle dogs. Here is the method: 3 male or female beagle dogs (7.7 to 12.7 kg) per one group were used. Loperamide was subcutaneously given at 1 mg/ml/kg. 2.5 hours prior to loperamide administration, a small amount of a feed was given to the animals. 30 minutes thereafter, predetermined doses of the compound No. 3 were orally given. Similarly, 0.5 % methyl cellulose solution was orally given to a control animal group under no fasting. Predetermined doses of naloxone and ondansetron were given intravenously and orally, respectively to the animals under fasting, 30 minutes prior to loperamide administration. The frequency of vomiting was counted, up to 3 hours after loperamide administration. The compound No. 3 was dissolved in 0.5 % methyl cellulose solution, for oral dosing at a ratio of 0.25 to 1 ml per 1 kg body weight. Additionally, naloxone was intravenously given in a solution at a concentration of 0.05 % w/v. An injection of ondansetron at a concentration of 0.2 % w/v was orally given. Still additionally, 0.5 % methyl cellulose solution was orally given at a ratio of 1 ml per 1 kg body weight. The data relating to the frequency of vomiting, the latency and the time period from the occurrence of vomiting to the termination thereof were statistically analyzed by the Dunnett test, with reference to the difference from the control group.
The vomiting suppression ratio was calculated by the following formula. [Frequency of retching or vomiting in control] - [Frequency of retching or vomiting in animals dosed with compound No. 3] / [frequency of retching or vomiting in control] x 100 (%) [formula]

Turning to `C=CCN1CC[C@]23c4c5ccc(O)c4O[C@H]2C(=O)CC[C@@]3(O)[C@H]1C5` [Naloxone, naloxone, reference compound], the Vomiting suppression ratio (0.5 mg/kg i.v.) amounted to 93 % b. Moreover, where the note is “0.5 mg/kg i.v., 3 hours”, the “B: Frequency of vomiting (mean ± SD)” value is 0.7 ± 0.7 b, the “C: Time period until first vomiting (minute; mean ± SD)” value is listed as 2.61± 0.39b minute, the “D: Duration of vomiting (minute; mean ± SD)” value worked out at 0.01 ± 0.01 b minute and the “Number of dogs with vomiting/number of tested dogs” value is 1/3. In addition, the “Effect on vomiting (in words)” value (0.5 mg/kg intravenous) is “almost completely suppressed”.

The record behind these values is patent EP1145714A1, “DRUGS” (Takeda Chemical Industries, Ltd., priority 1998, dated 2000).
